According to US10023579B2, “Pyrrolopyrimidine compounds, use as inhibitors of the kinase LRRK2, and methods for preparation thereof” (Southern Research Institute, priority 2015, dated 2018):

Assays:
[1] = molecular target: T1, G2019S-LRRK2 (recombinant GST-LRRK2 delta970) (Homo sapiens, UniProt Q5S007, G2019S); test: LRRK2 kinase assay, G2019S mutant (32P radiometric, peptide substrate); assay type: biochemical; conditions: G2019S-LRRK2 30 nM, ATP ~52 μM (Km), 30 min at 30° C.
T1 construct: Recombinant GST-LRRK2 (delta970); GST (N); host or cells: baculovirus-infected Sf9 insect cells
Method: (§1) Compounds were assessed for inhibition of LRRK2 inhibition using the following procedure. Recombinant GST-LRRK2 (delta970) purified from baculovirus infected insect cells (SF9), at least 90% pure and either wild-type sequence or bearing the pathogenic G2019S mutation, was combined into a kinase buffer at 30 nM concentration. Kinase buffer consists of 50 mM Tris HCl pH 7.4, 1 mM EDTA, and 50 μM peptide substrate (amino acid sequence […]). Experimental compounds or control (no compound) were added at desired concentrations in DMSO and water, where final concentration of DMSO in kinase reactions was 0.1% for all drug concentrations. […] Reactions were incubated at 1400 RPM at 30° C. for 30 min. and then spotted in triplicate directly onto a slot-blot apparatus fitted with phospho-cellulose paper and allowed to dry. Each slot was then washed with 10 mM phosphoric acid buffer until beta-radiation could not be detected in eluted wash buffer, usually ˜1 mL per slot. Paper within each slot were excised and radiation measured by liquid scintillation.

[2] = molecular target: T2, WT-LRRK2 (recombinant GST-LRRK2 delta970) (Homo sapiens, UniProt Q5S007); test: LRRK2 kinase assay, wild type (32P radiometric, peptide substrate); assay type: biochemical; conditions: WT-LRRK2 30 nM, ATP ~92 μM (Km), 30 min at 30° C.
T2 construct: Recombinant GST-LRRK2 (delta970); GST (N); host or cells: baculovirus-infected Sf9 insect cells
Method: as §1

T1 sequence (Q5S007 970-2527 G2019S limits assumed): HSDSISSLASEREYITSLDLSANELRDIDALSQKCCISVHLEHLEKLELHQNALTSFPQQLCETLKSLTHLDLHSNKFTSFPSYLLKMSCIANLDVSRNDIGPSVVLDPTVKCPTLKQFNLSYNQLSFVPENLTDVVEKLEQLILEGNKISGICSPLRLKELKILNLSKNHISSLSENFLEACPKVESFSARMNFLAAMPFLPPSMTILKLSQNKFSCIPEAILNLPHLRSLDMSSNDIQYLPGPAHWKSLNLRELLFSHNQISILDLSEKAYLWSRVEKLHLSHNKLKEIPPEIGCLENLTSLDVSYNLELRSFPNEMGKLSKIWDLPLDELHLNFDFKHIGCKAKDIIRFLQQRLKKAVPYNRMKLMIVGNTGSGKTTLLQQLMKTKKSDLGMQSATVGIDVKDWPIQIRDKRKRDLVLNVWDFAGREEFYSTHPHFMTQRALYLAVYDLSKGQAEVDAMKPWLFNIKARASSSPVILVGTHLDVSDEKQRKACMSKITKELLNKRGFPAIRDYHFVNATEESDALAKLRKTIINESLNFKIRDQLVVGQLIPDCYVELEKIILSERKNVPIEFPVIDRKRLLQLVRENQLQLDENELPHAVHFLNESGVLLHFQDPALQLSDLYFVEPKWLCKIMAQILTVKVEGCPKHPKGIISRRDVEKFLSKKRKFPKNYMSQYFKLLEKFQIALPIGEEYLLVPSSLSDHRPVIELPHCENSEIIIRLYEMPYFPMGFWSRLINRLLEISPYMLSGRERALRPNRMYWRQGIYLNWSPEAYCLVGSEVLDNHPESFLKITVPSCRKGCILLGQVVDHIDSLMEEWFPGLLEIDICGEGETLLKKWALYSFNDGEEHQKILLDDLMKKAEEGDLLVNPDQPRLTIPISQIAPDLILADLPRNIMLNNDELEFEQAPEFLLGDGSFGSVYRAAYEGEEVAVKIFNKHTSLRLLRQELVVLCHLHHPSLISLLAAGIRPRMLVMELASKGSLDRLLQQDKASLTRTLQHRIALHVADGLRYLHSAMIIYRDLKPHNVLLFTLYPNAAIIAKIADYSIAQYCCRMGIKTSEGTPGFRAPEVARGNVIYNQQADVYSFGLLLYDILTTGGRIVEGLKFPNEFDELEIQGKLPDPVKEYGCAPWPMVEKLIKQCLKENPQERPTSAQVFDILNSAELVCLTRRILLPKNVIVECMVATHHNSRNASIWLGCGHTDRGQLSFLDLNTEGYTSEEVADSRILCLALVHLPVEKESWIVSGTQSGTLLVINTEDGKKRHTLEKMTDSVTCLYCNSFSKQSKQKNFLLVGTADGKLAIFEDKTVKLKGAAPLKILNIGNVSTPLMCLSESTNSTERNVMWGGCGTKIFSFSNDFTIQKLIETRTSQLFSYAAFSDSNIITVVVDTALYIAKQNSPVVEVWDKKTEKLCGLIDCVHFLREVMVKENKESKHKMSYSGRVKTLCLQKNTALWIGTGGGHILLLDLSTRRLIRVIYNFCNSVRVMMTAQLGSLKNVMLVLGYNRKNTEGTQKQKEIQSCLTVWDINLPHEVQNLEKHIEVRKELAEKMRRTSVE
T2 sequence (Q5S007 970-2527 limits assumed): as the sequence (Q5S007 970-2527 G2019S limits assumed) above, with S1050G counted along it

## COCc1cc(Nc2nc(N[C@@H](C)C3CC3)c3cc[nH]c3n2)n[nH]1 [Compound 61, (S)-N4-(1-cyclopropylethyl)-N2-(5-(methoxymethyl)-1H-pyrazol-3-yl)-7H-pyrrolo[2,3-d]pyrimidine-2,4-diamine]
[1]
  IC50: 0.099 µM
[2]
  IC50: 0.064 µM
